Data reported in patent US7960584B2, “Compounds, isomer thereof, or pharmaceutically acceptable salts thereof as vanilloid receptor antagonist; and pharmaceutical compositions containing the same” (Amorepacific Corporation, priority 2005, dated 2011).

Test system: not given
Assay: not given
Conditions: not given

Row | Structure (SMILES) | melting point [°C]
1 | CC(C)(C)c1ccc(CNC(=O)NCc2ccc(NS(C)(=O)=O)c(Cl)c2)cc1 [Example 22, N-{4-[3-(4-t-butylbenzyl)ureidomethyl]-2-chlorophenyl}methane sulfonamide] | 60 to 61

Biological target: T1, vanilloid receptor (Rattus norvegicus, UniProt O35433)
T1 construct: DRG nerve cells from the primary culture of 2 days were equilibrated; endogenous in cells; host or cells: primary culture of dorsal root ganglion neurons from neonatal SD rats
Assay: 45Ca influx test in primary cultured DRG neurons (capsaicin-induced calcium uptake)
Type: cell-based
Conditions: neonatal SD rat DRG neurons; capsaicin 0.5 μM; 45Ca 10 μCi/ml; 10 min at room temperature
Protocol: 1) Separation of Spinal Dorsal Root Ganglia (DRG) in Newborn Rats and Primary Culture Thereof
Neonatal (2-3 day old or younger than 2-3 day old) SD rats were put in ice for 5 minutes to anesthetize and disinfected with 70% ethanol. DRG of all part of spinal cord were dissected (Wood et al., 1988, J. Neurosci. 8, pp 3208-3220) and collected in DME/F12 medium to which 1.2 g/l sodium bicarbonate, 50 mg/l gentamycin were added. The DRG were incubated sequentially at 37° C. for 30 min in 200 U/ml collagenase and 2.5 mg/ml trypsin, separately. The ganglia were washed twice with DME/F12 medium supplemented with 10% horse serum, triturated through a fire-polished Pasteur pipette, filtered through Nitex 80 membrane to obtain single cell suspension and the suspension was washed once more. This was subjected to centrifugation, then resuspended in cell culture medium at certain level of cell density. As the cell culture medium, DME/F12 medium supplemented with 10% horse serum was diluted with identical medium conditioned by C6 glioma cells 2 days on a confluent monolayer (1:1), and NGF (Nerve Growth Factor) was added to adjust 200 ng/ml as final concentration. After the cells were grown 2 days in medium where cytosine arabinoside (Ara-C, 100 μM) was added to kill dividing nonneuronal cells, medium was changed to one without Ara-C. The resuspended cells were plated at a density of 1500-2000 neurons/well onto Terasaki plates previously coated with 10 μg/ml poly-D-ornithine.
2) ^45Ca Influx Experiments
DRG nerve cells from the primary culture of 2 days were equilibrated by washing 4 times with HEPES (10 mM, pH 7.4)-buffered Ca^2+, Mg^2+-free HBSS (H-HBSS). The solution in each well was removed from the individual well. Medium containing the test compound plus capsaicin (final concentration 0.5 μM) and ^45Ca (final concentration 10 μCi/ml) in H-HBSS was added to each well and incubated at room temperature for 10 mins. Terasaki plates were washed five times with H-HBSS and dried at room temperature. To each well, 0.3% SDS (10 μl) was added to elute ^45Ca. After the addition of scintillation cocktail of into each well, the amount of ^45Ca influx into neuron was measured by counting radioactivity.

T1 sequence (O35433 whole entry): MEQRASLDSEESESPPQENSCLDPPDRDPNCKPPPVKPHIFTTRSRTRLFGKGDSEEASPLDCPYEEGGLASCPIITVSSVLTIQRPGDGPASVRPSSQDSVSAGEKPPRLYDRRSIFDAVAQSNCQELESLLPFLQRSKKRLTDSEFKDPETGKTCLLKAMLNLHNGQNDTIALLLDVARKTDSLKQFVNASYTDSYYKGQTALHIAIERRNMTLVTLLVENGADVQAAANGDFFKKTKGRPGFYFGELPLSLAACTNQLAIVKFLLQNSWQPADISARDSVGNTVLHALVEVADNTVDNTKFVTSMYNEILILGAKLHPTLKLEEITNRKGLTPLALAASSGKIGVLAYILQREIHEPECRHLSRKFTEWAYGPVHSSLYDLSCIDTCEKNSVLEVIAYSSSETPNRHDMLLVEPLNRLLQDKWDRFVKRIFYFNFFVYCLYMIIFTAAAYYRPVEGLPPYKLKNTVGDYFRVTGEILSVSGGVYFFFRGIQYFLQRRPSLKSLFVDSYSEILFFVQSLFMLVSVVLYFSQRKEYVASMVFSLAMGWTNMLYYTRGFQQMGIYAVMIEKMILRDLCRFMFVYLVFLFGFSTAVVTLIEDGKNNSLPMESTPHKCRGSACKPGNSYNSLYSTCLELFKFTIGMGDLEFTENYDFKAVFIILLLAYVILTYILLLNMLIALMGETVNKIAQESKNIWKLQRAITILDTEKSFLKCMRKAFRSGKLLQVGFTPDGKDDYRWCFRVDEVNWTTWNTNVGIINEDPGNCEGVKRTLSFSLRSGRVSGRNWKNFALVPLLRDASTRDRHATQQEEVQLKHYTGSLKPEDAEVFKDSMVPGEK

Row | Structure (SMILES) | IC50 [nM]
2 | CC(C)(C)c1ccc(/C=C/C(=O)NCc2ccc(NS(C)(=O)=O)c(Cl)c2)cc1 [Example 2, 3-(4-t-Butyl-phenyl)-N-(3-chloro-4-methanesulfonylamino-benzyl)-acrylamide] | 260
3 | Cc1cc(CNC(=O)/C=C/c2ccc(C(C)(C)C)cc2)ccc1NS(C)(=O)=O [Example 3, 3-(4-t-Butyl-phenyl)-N-(3-methyl-4-methanesulfonylamino-benzyl)-acrylamide] | 290
4 | CC(C)(C)c1ccc(/C=C/C(=O)NCc2cc(F)c(NS(C)(=O)=O)cc2F)cc1 [Example 5, 3-(4-t-Butyl-phenyl)-N-(2,5-difluoro-4-methanesulfonylamino-benzyl)-acrylamide] | 210
5 | CC(C)(C)c1ccc(/C=C/C(=O)NCc2cc(Cl)c(NS(C)(=O)=O)c(I)c2)cc1 [Example 6, 3-(4-t-Butylphenyl)-N-(3-chloro-5-iodo-4-methanesulfonylamino-benzyl)acrylamide] | 350
6 | Cc1cc(CNC(=O)/C=C/c2ccc(C(C)(C)C)cc2)cc(F)c1NS(C)(=O)=O [Example 9, 3-(4-t-Butyl-phenyl)-N-(3-fluoro-4-methanesulfonylamino-5-methyl-benzyl)-acrylamide] | 360
7 | C/C(=C\c1ccc(C(C)(C)C)cc1)C(=O)N[C@H](C)c1ccc(NS(C)(=O)=O)cc1 [Example 11, 3-(4-t-Butylphenyl)-N-[1-(R)-(4-methanesulfonylaminophenyl)ethyl]-2-methylacrylamide] | 46
8 | C/C(=C\c1ccc(C(C)(C)C)cc1)C(=O)NCc1ccc(NS(C)(=O)=O)c(F)c1 [Example 12, 3-(4-t-Butylphenyl)-N-(3-fluoro-4-methanesulfonylaminobenzyl)-2-methylacrylamide] | 120
9 | C[C@@H](NC(=O)C#Cc1ccc(C(C)(C)C)cc1)c1ccc(NS(C)(=O)=O)cc1 [Example 16, 3-(4-t-butylphenyl)-N-[1-(R)-(4-methanesulfonylaminophenyl)ethyl]propiolicamide] | 100
10 | CC(C)(C)c1ccc(CNC(=O)NCc2cc(F)c(NS(C)(=O)=O)c(I)c2)cc1 [Example 17, N-{4-[3-(4-t-butylbenzyl)ureidomethyl]-2-fluoro-6-iodophenyl}methanesulfonamide] | 290
11 | Cc1cc(CNC(=O)NCc2ccc(C(C)(C)C)cc2)ccc1NS(C)(=O)=O [Example 21, N-{4-[3-(4-t-butylbenzyl)ureidomethyl]-2-methylphenyl}methane sulfonamide] | 83
12 | CC(C)(C)c1ccc(CNC(=O)NCc2ccc(NS(C)(=O)=O)c([N+](=O)[O-])c2)cc1 [Example 23, N-{4-[3-(4-t-butylbenzyl)ureidomethyl]-2-nitrophenyl}methane sulfonamide] | 240
13 | CC(C)(C)c1ccc(CNC(=O)NCc2cc(F)c(NS(C)(=O)=O)cc2F)cc1 [Example 26, N-{4-[3-(4-t-Butyl-benzyl)-ureidomethyl]-2,5-difluoro-phenyl}-methanesulfonamide] | 560
14 | Cc1cc(CNC(=O)NCc2ccc(C(C)(C)C)cc2)cc(Cl)c1NS(C)(=O)=O [Example 27, N-{4-[3-(4-t-Butylbenzyl)ureidomethyl]-2-chloro-6-methylphenyl}methanesulfonamide] | 190

More lines, now with the values ahead:

Row | IC50 [nM] | Structure (SMILES)
15 | 590 | CC(C)(C)c1ccc(C#CC(=O)NCc2ccc(NS(C)(=O)=O)cc2)cc1 [Example 15, 3-(4-t-butylphenyl)-N-[4-(methanesulfonylamino)benzyl]propiolicamide]
16 | 530 | CC(C)(C)c1ccc(CNC(=O)NCc2cc(I)c(NS(C)(=O)=O)cc2Cl)cc1 [Example 18, N-{4-[3-(4-t-butylbenzyl)ureidomethyl]-5-chloro-2-Iodophenyl}methanesulfonamide]
17 | 470 | CC(C)(C)c1ccc(CNC(=O)NCc2cc(F)c(NS(C)(=O)=O)c(F)c2)cc1 [Example 25, N-{4-[3-(4-t-Butyl-benzyl)-ureidomethyl]-2,6-difluoro-phenyl}-methanesulfonamide]
18 | 440 | C/C(=C\c1ccc(C(C)(C)C)cc1)C(=O)NCc1ccc(NS(C)(=O)=O)cc1 [Example 10, 3-(4-t-butylphenyl)-N-(4-methanesulfonylaminobenzyl)-2-methyl-acrylamide]
19 | 390 | CC(C)(C)c1ccc(CNC(=O)NCc2ccc(NS(C)(=O)=O)c(I)c2)cc1 [Example 24, N-{4-[3-(4-t-Butyl-benzyl)-ureidomethyl]-2-iodo-phenyl}-methanesulfonamide]
20 | 360 | Cc1cc(CNC(=O)/C=C/c2ccc(C(C)(C)C)cc2)cc(Cl)c1NS(C)(=O)=O [Example 7, 3-(4-t-Butyl-phenyl)-N-(3-chloro-4-methanesulfonylamino-5-methylbenzyl)acrylamide]
21 | 310 | CC(C)(C)c1ccc(/C=C/C(=O)NCc2cc(F)c(NS(C)(=O)=O)c(F)c2)cc1 [Example 4, 3-(4-t-Butyl-phenyl)-N-(3,5-difluoro-4-methanesulfonylamino-benzyl)-acrylamide]
22 | 290 | CCc1cc(CNC(=O)NCc2ccc(C(C)(C)C)cc2)c(Cl)cc1NS(C)(=O)=O [Example 28, N-{4-[3-(4-t-Butylbenzyl)-ureidomethyl]-5-chloro-2-ethylphenyl}methanesulfonamide]
23 | 240 | CC(C)(C)c1ccc(CNC(=O)NCc2ccc(NS(C)(=O)=O)c(Cl)c2)cc1 [Example 22, N-{4-[3-(4-t-butylbenzyl)ureidomethyl]-2-chlorophenyl}methane sulfonamide]
24 | 180 | CC(C)(C)c1ccc(/C=C/C(=O)NCc2cc(F)c(NS(C)(=O)=O)c(I)c2)cc1 [Example 8, 3-(4-t-butylphenyl)-N-(3-fluoro-5-iodo-4-methanesulfonylaminobenzyl)acrylamide]
25 | 150 | C/C(=C\C(=O)NCc1ccc(NS(C)(=O)=O)c(F)c1)c1ccc(C(C)(C)C)cc1 [Example 13, 3-(4-t-Butyl-phenyl)-but-2-enoic acid 3-fluoro-4-methanesulfonylamino-benzylamide]
26 | 150 | CCc1cc(CNC(=O)NCc2ccc(C(C)(C)C)cc2)cc(F)c1NS(C)(=O)=O [Example 19, N-{4-[3-(4-t-butylbenzyl)ureidomethyl]-2-ethyl-6-fluorophenyl}methanesulfonamide]
27 | 73 | Cc1cc(CNC(=O)NCc2ccc(C(C)(C)C)cc2)cc(F)c1NS(C)(=O)=O [Example 29, N-{4-[3-(4-t-Butyl-benzyl)-ureidomethyl]-2-fluoro-6-methyl-phenyl}-methanesulfonamide]
28 | 41 | C/C(=C\c1ccc(C(C)(C)C)cc1)C(=O)N[C@H](C)c1ccc(NS(C)(=O)=O)c(F)c1 [Example 14, 3-(4-t-Butyl-phenyl)-N-[1-(3-fluoro-4-methanesulfonylaminophenyl)ethyl]-2-methylacrylamide]

Test system: Male ICR mice
Assay: Analgesic activity test: mouse writhing test induced with phenyl-p-quinone
Type: in vivo
Conditions: dose 1 mg/kg intraperitoneally 30 min before phenyl-p-quinone 4.5 mg/kg i.p.; writhes counted 6-12 min after
Protocol: 2. Analgesic Activity Test: Mouse Writhing Test by Inducing with Phenyl-p-quinone
Male ICR mice (mean body weight 25 g) were maintained in a controlled lighting environment (12 h on/12 h off) for experiment. Animals received an intraperitoneal injection of 0.3 ml of the chemical irritant phenyl-p-quinone (dissolved in saline containing 5% ethanol to be a dose of 4.5 mg/kg) and 6 mins later, the number of abdominal constrictions was counted in the subsequent 6 mins period. Animals (10 animals/group) received 0.2 ml of test compounds solution in vehicle of ethanol/Tween 80/saline (10/10/80) intraperitoneally 30 min before the injection of phenyl-p-quinone. A reduction in the number of writhes responding to the test drug compound relative to the number responding in saline control group was considered to be indicative of an analgesic effect. Analgesic effect was calculated by % inhibition equation (% inhibition=(C−T)/C×100), wherein C and T represent the number of writhes in control and compound-treated group, respectively (Table 2).

Row | Structure (SMILES) | Analgesic effect (% Inhibition)
29 | C/C(=C\c1ccc(C(C)(C)C)cc1)C(=O)N[C@H](C)c1ccc(NS(C)(=O)=O)cc1 [Example 11, 3-(4-t-Butylphenyl)-N-[1-(R)-(4-methanesulfonylaminophenyl)ethyl]-2-methylacrylamide] | 56
30 | C/C(=C\c1ccc(C(C)(C)C)cc1)C(=O)N[C@H](C)c1ccc(NS(C)(=O)=O)c(F)c1 [Example 14, 3-(4-t-Butyl-phenyl)-N-[1-(3-fluoro-4-methanesulfonylaminophenyl)ethyl]-2-methylacrylamide] | 42
31 | CC(C)(C)c1ccc(CNC(=O)NCc2ccc(NS(C)(=O)=O)c(F)c2)cc1 [Example 20, N-{4-[3-(4-t-butylbenzyl)ureidomethyl]-2-fluorophenyl}methanesulfonamide] | 82
32 | Cc1cc(CNC(=O)NCc2ccc(C(C)(C)C)cc2)ccc1NS(C)(=O)=O [Example 21, N-{4-[3-(4-t-butylbenzyl)ureidomethyl]-2-methylphenyl}methane sulfonamide] | 58
33 | Cc1cc(CNC(=O)NCc2ccc(C(C)(C)C)cc2)cc(F)c1NS(C)(=O)=O [Example 29, N-{4-[3-(4-t-Butyl-benzyl)-ureidomethyl]-2-fluoro-6-methyl-phenyl}-methanesulfonamide] | 54
